Test [1] is described as follows: Initial rates of fluorescence intensity of compound RAH2115 vs H2O2 concentration; detection limit. Format: physicochemical. As to conditions: Detection Limit=3σ/κ, slope from FIG. 4 Graph B. How it is done:
The initial response rate of compound RAH2115 was also verified to be directly proportional to the concentration of H2O2. Specifically, immediately prior to use, 5 mM and 0.5 mM stock solutions of hydrogen peroxide were prepared in freshly degassed 1× PBS buffer (pH 7.4) using reagent grade H2O2 (30%). A 100 μM stock solution of compound RAH2115 was prepared in 200-proof ethanol. […] The plate was inserted into a 96-well plate reader (BioTek SYNERGY-HTX hybrid multi-mode reader, Winooski, Vt.) heated to 37° C., and agitated to ensure homogeneity. Fluorescence measurements were recorded and plotted as the change in initial rates of fluorescence intensity vs hydrogen peroxide concentration. This assay was repeated in triplicate and recorded as the mean+/−STDEV from three experiments.
This finding was deemed to be of great significance as the rate of payload release from the scaffold could then be tuned by varying the amount of H2O2. In addition, this finding also allowed for reaction-based fluorescent probes based off of this design (i.e., compound RAH2115) to be used to accurately quantify the amount of H2O2 in buffered solutions. Indeed, as depicted in FIG. 4, Graph B, when the initial rates of increasing fluorescence intensity of compound RAH2115 were plotted versus hydrogen peroxide concentration, excellent linearity between 0-1 mM was observed (R^2=0.99). […]

Test [2] can be described thus: Selectivity screen of compound RAH2115 against oxidants, reductants, nucleophiles and salts (turn-on fluorescence). Format: physicochemical. As to conditions: RAH2115 10 μM. An excerpt:
Given the longer excitation and emission profile of resorufin, it was hypothesized that compound RAH2115 would provide a better gauge of the overall selectivity and sensitivity of the scaffold towards H2O2 while confirming its potential applications within a biological setting. The high selectivity the scaffold towards H2O2 was confirmed by thoroughly screening compound RAH2115 against various oxidants, reductants, and nucleophiles in PBS buffer (pH 7.4) and measuring the resulting turn-on fluorescence after a 2 h incubation period (See FIG. 4, Graph A).
[…] Next, 1.080 mL of a freshly prepared 111.1 μM compound RAH2115 stock solution was added to 10.80 mL of 1× PBS buffer (pH 7.4) to give a total volume of 11.88 mL. 120 μL of analyte stock solution (PBS buffer alone, hydrogen peroxide, glutathione, glutathione disulfide, sodium nitrite, L-cysteine, L-lysine, L-serine, sodium chloride, sodium bromide, L-homocysteine, sodium sulfide, sodium sulfate, sodium thiosulfate and sodium hypochlorite) was then added to give a final volume of 12 mL, and each reaction was left to stir at 37° C.

Test [3] deals with HeLa cells. The experiment in a line: Imaging hydrogen peroxide in living HeLa cells with compound RAH2115 (confocal). Type of test: cell-based, human. As to conditions: ex: 561 nm, em: 587 nm. As to the method: HeLa (human cervical cancer) cells were grown and maintained appropriately according to the American Type Culture Collection (Manassas, Va.). Dulbecco's Modified Eagle Medium:F12-K (1:1) was supplemented with 10% fetal bovine serum (FBS), 1% penicillin-streptomycin, and 1% L-glutamine (ThermoFisher). Cells were incubated at 37° C. in a 5% CO2 atmosphere and split at 70-80% confluency every 2-3 days.
At 70-80% confluency, HeLa cells were seeded on two 35 mm glass-bottom round plates (MatTek Corporation, Ashland, Mass.) at a density of 200 k cells/mL. After adhering overnight, FBS-free media was aspirated and cells were washed with phosphate buffered saline (1×, pH 7.4). Cells in one dish were then incubated with 10 mM Paraquat (Methyl Viologen) for 4 h. Afterwards, both dishes were washed and incubated with compound RAH2115 (10 μM) for 1 hour. After a final PBS wash, both plates were rehydrated in phenol red-free media for imaging. Both control (absence of paraquat) and experimental (presence of paraquat) plates were imaged: ex: 561 nm, em: 587 nm. […]
An automated cell selection algorithm within the ImageJ software was used to quantify intracellular fluorescence. Cells from both control and experimental groups were subjected to Gaussian smoothing in order to accurately measure fluorescence within cells based on a minimum threshold against background. […]

For the compound `CC(C)(Cc1ccccc1B1OC(C)(C)C(C)(C)O1)C(=O)Oc1ccc2nc3ccc(=O)cc-3oc2c1` [compound RAH2115], in test [1], the “detection limit for H2O2” value came out at 1.5 µM. For the same compound, in test [2] (1 mM H2O2, 2 h, vs PBS buffer alone), the “increase in relative fluorescence intensity when co-incubated with H2O2” value is recorded as about 500 fold. In test [2] (2 h, PBS pH 7.4, 37° C.), the “increase in fluorescence intensity in the presence of other oxidants, reductants, nucleophiles and salts (in words)” value is on record as “negligible”. Besides, the “fluorescence (ex: 560 nm, em: 585 nm)” value is given as 1.7+/−0.32 in test [2] (PBS pH 7.4, 37° C., 2 h, (1) PBS Buffer alone); 812.25+/−89.32 in test [2] (PBS pH 7.4, 37° C., 2 h, (2) 1 mM H2O2); 43.65+/−4.24 in test [2] (PBS pH 7.4, 37° C., 2 h, (3) 1 mM glutathione); 29.87+/−0.96 in test [2] (PBS pH 7.4, 37° C., 2 h, (4) 1 mM glutathione disulfide); 47.10+/−11.06 in test [2] (PBS pH 7.4, 37° C., 2 h, (5) 1 mM NaNO2); 2.63+/−0.13 in test [2] (PBS pH 7.4, 37° C., 2 h, (6) 1 mM L-cysteine). Further, the “fluorescence (ex: 560 nm, em: 585 nm)” value in test [2] (PBS pH 7.4, 37° C., 2 h, (7) 1 mM L-lysine) is on record as 3.31+/−0.61; in test [2] (PBS pH 7.4, 37° C., 2 h, (8) 1 mM L-serine), 1.70+/−0.13; in test [2] (PBS pH 7.4, 37° C., 2 h, (9) 1 mM NaCl), 40.71+/−1.33; in test [2] (PBS pH 7.4, 37° C., 2 h, (10) 1 mM NaBr) it was 39.56+/−0.02; in test [2] (PBS pH 7.4, 37° C., 2 h, (11) 1 mM L-homocysteine), 74.32+/−5.27; in test [2] (PBS pH 7.4, 37° C., 2 h, (12) 100 mM Na2S), 46.97+/−1.47. The “fluorescence (ex: 560 nm, em: 585 nm)” value was 38.01+/−2.86 in test [2] (PBS pH 7.4, 37° C., 2 h, (13) 1 mM sodium sulfate); 1.72+/−0.22 in test [2] (PBS pH 7.4, 37° C., 2 h, (14) 1 mM sodium thiosulfate); 16.75+/−1.09 in test [2] (PBS pH 7.4, 37° C., 2 h, (15) 1 mM sodium hypochlorite). For the same compound, in test [3] (10 mM paraquat 4 h, then RAH2115 10 μM 1 hour), the “fluorescence in live HeLa cells pre-treated with paraquat (in words)” value is “strong red fluorescence within cells”. Further, in test [3] (RAH2115 10 μM, 1 hour, control without paraquat), the “fluorescence in live HeLa cells, absence of paraquat (in words)” value is recorded as “no fluorescent cells were observed”.

The values are drawn from patent publication US20230227477A1, “COMPOUNDS FOR SENSING REACTIVE OXYGEN SPECIES AND METHODS FOR USING THE SAME” (WAKE FOREST UNIVERSITY HEALTH SCIENCES, priority 2020, published 2023).
